The source made the active and inactive calls. No cut-off for these calls is given here.
Columns and labels:
[1] = biological target: T1, Lysine-specific histone demethylase 1A (Homo sapiens, UniProt O60341); test: Inhibition of LSD1 in human PC-3 cells assessed as fold increase in H3K4me2 to H3 ratio at 1 uM incubated for 24 hrs by Western blotting analysis (reference value: 1); type: cell-based
[2] = biological target: T1, Lysine-specific histone demethylase 1A
Description: Inhibition of human recombinant LSD1 using H3K4me2 peptide substrate preincubated for 15 mins followed by substrate addition and measured after 30 mins by fluorescence based assay

[3] = biological target: T1, Lysine-specific histone demethylase 1A; test: Drug metabolism assessed as LSD1 (unknown origin) mediated entinostat release incubated for 24 hrs by HPLC analysis; type: ADME
[4] = biological target: T1, Lysine-specific histone demethylase 1A; test: Potency index, ratio of PCPA IC50 to test compound IC50 for inhibition of human recombinant LSD1
[5] = biological target: T1, Lysine-specific histone demethylase 1A; test: Inhibition of LSD1 in human PC-3 cells assessed as fold increase in H3K4me2 to H3 ratio at 0.3 uM incubated for 24 hrs by Western blotting analysis (reference value: 1); type: cell-based
[6] = biological target: T1, Lysine-specific histone demethylase 1A; test: Inhibition of LSD1 in human PC-3 cells assessed as increase in H3K4me2 level incubated for 24 hrs by Western blotting analysis; type: cell-based; conditions: dose 0.1-1 µM
[7] = biological target: T2, Histone deacetylase (Homo sapiens) (UniProt Q13547+O15379+Q9UBN7+Q92769+Q9UQL6+Q8WUI4+Q9BY41+Q96DB2+P56524+Q9UKV0+Q969S8); test: Inhibition of HDAC in human PC-3 cells assessed as fold increase in acetylated H3K9 to H3 ratio at 1 uM incubated for 24 hrs by Western blotting analysis (reference value: […]); type: cell-based
[8] = biological target: T2, Histone deacetylase (Homo sapiens); test: Inhibition of HDAC in human PC-3 cells assessed as fold increase in acetylated H3K9 to H3 ratio at 0.3 uM incubated for 24 hrs by Western blotting analysis (reference value: 1); type: cell-based
in vitro = conditions: human, PrEC cells
Description: Cytotoxicity against human PrEC cells incubated for 3 days by alamar blue assay

PC-3 = test: cells; conditions: Homo sapiens, PC-3, 72 h
Description: Antiproliferative activity against human PC-3 cells incubated for 3 days by alamar blue assay

[9] = biological target: T1, Lysine-specific histone demethylase 1A; test: Inhibition of LSD1 in human PC-3 cells assessed as fold increase in H3K4me2 to H3 ratio at 0.1 uM incubated for 24 hrs by Western blotting analysis (reference value: 1); type: cell-based
LN-18 = test: cells; conditions: Homo sapiens, LN-18, 72 h
Description: Antiproliferative activity against human LN-18 cells incubated for 3 days by alamar blue assay

[10] = biological target: T2, Histone deacetylase (Homo sapiens); test: Inhibition of HDAC in human PC-3 cells assessed as H3K9 acetylation at 0.1 to 1 uM incubated for 24 hrs by Western blotting analysis; type: cell-based; conditions: dose 0.1-1 µM
HL-60 = test: cells; conditions: Homo sapiens, HL-60, 72 h
Description: Antiproliferative activity against human HL-60 cells incubated for 3 days by alamar blue assay

[11] = biological target: T2, Histone deacetylase (Homo sapiens); test: Inhibition of HDAC in human PC-3 cells assessed as fold increase in acetylated H3K9 to H3 ratio at 0.1 uM incubated for 24 hrs by Western blotting analysis (reference value: […]); type: cell-based
[12] = biological target: T1, Lysine-specific histone demethylase 1A; test: Drug metabolism assessed as LSD1 (unknown origin) mediated entinostat release; type: ADME

Row | Drug metabolism [12] | SMILES | fold change (FC) [1] | IC50 [2] [nM] | Drug metabolism [3] | Ratio IC50 [4] | fold change (FC) [5] | inhibition [6] | fold change (FC) [7] | fold change (FC) [8] | GI50 at 72 h (in vitro) [nM] | GI50 (PC-3) [nM] | fold change (FC) [9] | GI50 (LN-18) [nM] | inhibition [10] | GI50 (HL-60) [nM] | fold change (FC) [11]
1 |  | CN(CCN(C)C1CC1c1ccccc1)C(=O)Oc1ccc(COC(=O)Nc2ccccc2NC(=O)c2ccc(CNC(=O)OCc3cccnc3)cc2)cc1 (stereo unspecified) | 1.58 | 626 | Metabolite_Detected | 40 | 1.49 | Dose-Dependent Effect | 2.01 | 1.77 | > 100000 | 1180 | 1.18 | 5620 | Active | 4490 | 1.48
2 |  | Nc1ccccc1NC(=O)c1ccc(CNC(=O)OCc2cccnc2)cc1 [ENTINOSTAT] |  |  |  |  |  |  |  |  | 2230 | 87 |  | 917 |  | 214 | 
3 | Metabolite_Notdetected | CN(CCN(C)C1CC1c1ccccc1)C(=O)Nc1ccccc1NC(=O)c1ccc(CNC(=O)OCc2cccnc2)cc1 (stereo unspecified) |  | 50300 |  |  |  |  |  |  |  |  |  |  |  |  | 
